Columns and labels:
CD8+ T cells = test: In vitro T-cell priming (immunogenicity) with aAPCs loaded with peptide/MHC and anti-CD28, pMHC multimer readout; format: cell-based, human; conditions: for Wells positive [%]: in vitro immunogenicity, HLA-A*02 restricted peptides, positive wells among evaluable; for donors / wells: in vitro immunogenicity of HLA class I peptides; for donors: percentage of positive donors; for wells: percentage of positive wells
Excerpt: In order to obtain information regarding the immunogenicity of the TUMAPs of the present invention, the inventors performed investigations using an in vitro T-cell priming assay based on repeated stimulations of CD8+ T cells with artificial antigen presenting cells (aAPCs) loaded with peptide/MHC complexes and anti-CD28 antibody.
In order to perform in vitro stimulations by artificial antigen presenting cells loaded with peptide-MHC complex (pMHC) and anti-CD28 antibody, the inventors first isolated CD8+ T cells from fresh HLA-A*02 leukapheresis products via positive selection using CD8 microbeads (Miltenyi Biotec, Bergisch-Gladbach, Germany) of healthy donors obtained from the University clinics Mannheim, Germany, after informed consent.
PBMCs and isolated CD8+ lymphocytes were incubated in T-cell medium (TCM) until use consisting of RPMI-Glutamax (Invitrogen, Karlsruhe, Germany) supplemented with 10% heat inactivated human AB serum (PAN-Biotech, Aidenbach, Germany), 100 U/ml Penicillin/100 μg/ml Streptomycin (Cambrex, Cologne, Germany), 1 mM sodium pyruvate (CC Pro, Oberdorla, Germany), 20 μg/ml Gentamycin (Cambrex). 2.5 ng/ml IL-7 (PromoCell, Heidelberg, Germany) and 10 U/ml IL-2 (Novartis Pharma, Nürnberg, Germany) were also added to the TCM at this step.
Generation of pMHC/anti-CD28 coated beads, T-cell stimulations and readout was performed in a highly defined in vitro system using four different pMHC molecules per stimulation condition and 8 different pMHC molecules per readout condition.
The purified co-stimulatory mouse IgG2a anti human CD28 Ab 9.3 (Jung et al., 1987) was chemically biotinylated using Sulfo-N-hydroxysuccinimidobiotin as recommended by the manufacturer (Perbio, Bonn, Germany). Beads used were 5.6 μm diameter streptavidin coated polystyrene particles (Bangs Laboratories, Illinois, USA).
pMHC used for positive and negative control stimulations were A*0201/MLA-001 (peptide […] (SEQ ID NO. 664) from modified Melan-A/MART-1) and A*0201/DDX5-001 ([…] from DDX5, SEQ ID NO. 665), respectively.
800.000 beads/200 μl were coated in 96-well plates in the presence of 4×12.5 ng different biotin-pMHC, washed and 600 ng biotin anti-CD28 were added subsequently in a volume of 200 μl. Stimulations were initiated in 96-well plates by co-incubating 1×10^6 CD8+ T cells with 2×10^5 washed coated beads in 200 μl TCM supplemented with 5 ng/ml IL-12 (PromoCell) for 3 days at 37° C. Half of the medium was then exchanged by fresh TCM supplemented with 80 U/ml IL-2 and incubating was continued for 4 days at 37° C. This stimulation cycle was performed for a total of three times. For the pMHC multimer readout using 8 different pMHC molecules per condition, a two-dimensional combinatorial coding approach was used as previously described (Andersen et al., 2012) with minor modifications encompassing coupling to 5 different fluorochromes. Finally, multimeric analyses were performed by staining the cells with Live/dead near IR dye (Invitrogen, Karlsruhe, Germany), CD8-FITC antibody clone SK1 (BD, Heidelberg, Germany) and fluorescent pMHC multimers. For analysis, a BD LSRII SORP cytometer equipped with appropriate lasers and filters was used. Peptide specific cells were calculated as percentage of total CD8+ cells. Evaluation of multimeric analysis was done using the FlowJo software (Tree Star, Oregon, USA). In vitro priming of specific multimer+CD8+ lymphocytes was detected by comparing to negative control stimulations.
Exemplary flow cytometry results after TUMAP-specific multimer staining for two peptides of the invention are shown in FIG. 3 together with corresponding negative controls.

HLA-A*02:01 = HLA-A*02:01 (Homo sapiens, UniProt P04439, D140Y/D185E/D98H/E176V/E277Q/G131W/G231S/I119V/I121R/I166T/I218V/L300P/L318F/N151K/N90K/P208A/P217A/Q86G/Q94H/R138H/R169H/T345S); test: MHC binding assay (UV-ligand exchange, β2m ELISA, peptide exchange yield); conditions: MHC class I binding score; binding to HLA-A*02:01 ranged by peptide exchange yield (UV-ligand exchange, β2m ELISA)
Outline: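 Peptide–HLA-A*02:01 complexes were formed by UV-mediated exchange of a UV-cleavable ligand for the test peptide. Exchange yield was measured by capturing complexes on streptavidin, detecting with HRP anti-β2m antibody (1 h, 37°C) and reading TMB absorbance at 450 nm.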

| Substance | Peptide exchange (HLA-A*02:01) | Wells positive [%] (CD8+ T cells) | donors (CD8+ T cells) | wells (CD8+ T cells) |
| --- | --- | --- | --- | --- |
| 2 (SLLEADPFL; listed as Homo sapiens) [compound 2] | ″+++″ (≧50% = +++) | ″+″ (<20% = +) |  |  |
| 3 (SLASKLTTL; listed as Homo sapiens) [compound 3] | ″++++″ (≧75% = ++++) | ″+″ (<20% = +) |  |  |
| 5 (HLTEVYPEL; listed as Homo sapiens) [compound 5] | ″+++″ (≧50% = +++) | ″+++″ (50%-69% = +++) |  |  |
| 7 (SLVGLLLYL; listed as Homo sapiens) [compound 7] | ″++++″ (≧75% = ++++) | ″++″ (20%-49% = ++) |  |  |
| 8 (FTLGNVVGMYL; listed as Homo sapiens) [compound 8] | ″++++″ (≧75% = ++++) | ″+″ (<20% = +) |  |  |
| 11 (KIFEMLEGV; listed as Homo sapiens) [compound 11] | ″+++″ (≧50% = +++) | ″+″ (<20% = +) |  |  |
| 17 (GLLPGDRLVSV; listed as Homo sapiens) [compound 17] | ″+++″ (≧50% = +++) | ″++″ (20%-49% = ++) |  |  |
| 19 (FMVDNEAIYDI; listed as Homo sapiens) [compound 19] | ″++++″ (≧75% = ++++) | ″++″ (20%-49% = ++) |  |  |
| 36 (YVLEDLEVTV; listed as Homo sapiens) [compound 36] | ″++″ (≧20% = ++) | ″+″ (<20% = +) |  |  |
| 38 (FLLEDDIHVS; listed as Homo sapiens) [compound 38] | ″+++″ (≧50% = +++) | ″+″ (<20% = +) |  |  |
| 40 (TLLVKVFSV; listed as Homo sapiens) [compound 40] | ″+++″ (≧50% = +++) | ″++″ (20%-49% = ++) |  |  |
| 48 (ALAELYEDEV; listed as Homo sapiens) [compound 48] | ″+++″ (≧50% = +++) | ″+″ (<20% = +) |  |  |
| 49 (YLPAVFEEV; listed as Homo sapiens) [compound 49] | ″+++″ (≧50% = +++) | ″++″ (20%-49% = ++) |  |  |
| 56 (KLYEGIPVLL; listed as Homo sapiens) [compound 56] | ″++++″ (≧75% = ++++) | ″+″ (<20% = +) |  |  |
| 60 (SLTIDGIYYV; listed as Homo sapiens) [compound 60] | ″++++″ (≧75% = ++++) | ″++++″ (> = 70% = ++++) |  |  |
| 61 (FLQGYQLHL; listed as Homo sapiens) [compound 61] | ″++++″ (≧75% = ++++) | ″++″ (20%-49% = ++) |  |  |
| 79 (SLFIGEKAVLL; listed as Homo sapiens) [compound 79] | ″+++″ (≧50% = +++) | ″+″ (<20% = +) |  |  |
| 108 (ALFPGVALLLA; listed as Homo sapiens) [compound 108] | ″++++″ (≧75% = ++++) | ″++″ (20%-49% = ++) |  |  |
| 113 (GLLPTPLFGV; listed as Homo sapiens) [compound 113] | ″+++″ (≧50% = +++) | ″+″ (<20% = +) |  |  |
| 118 (KLIDNNINV; listed as Homo sapiens) [compound 118] | ″+++″ (≧50% = +++) | ″+″ (<20% = +) |  |  |
| 141 (YLDFSNNRL; listed as Homo sapiens) [compound 141] | ″++″ (≧20% = ++) | ″+″ (<20% = +) |  |  |
| 648 (LLWGNAIFL; listed as Homo sapiens) [compound 648] |  |  | +++ (50%-69% = +++) |  |
| 652 (TLWYRAPEV; listed as Homo sapiens) [compound 652] |  |  | ++++ (> = 70% = ++++) | +++ (50%-69% = +++) |
| 659 (ILFPDIIARA; listed as Homo sapiens) [compound 659] |  |  | +++ (50%-69% = +++) | + (<20% = +) |
| 662 (KIQEILTQV; listed as Homo sapiens) [compound 662] |  |  | +++ (50%-69% = +++) | + (<20% = +) |
| 663 (KIQEMQHFL; listed as Homo sapiens) [compound 663] |  |  | +++ (50%-69% = +++) | + (<20% = +) |

Now from value to substance, other results behind:

| Peptide exchange (HLA-A*02:01) | Substance | Wells positive [%] (CD8+ T cells) | donors (CD8+ T cells) | wells (CD8+ T cells) |
| --- | --- | --- | --- | --- |
| ″++++″ (≧75% = ++++) | 143 (LLLDITPEI; listed as Homo sapiens) [compound 143] | ″+″ (<20% = +) |  |  |
| ″+++″ (≧50% = +++) | 150 (RLWEEGEELEL; listed as Homo sapiens) [compound 150] | ″+″ (<20% = +) |  |  |
| ″+++″ (≧50% = +++) | 152 (ILFEDIFDV; listed as Homo sapiens) [compound 152] | ″++″ (20%-49% = ++) |  |  |
| ″++″ (≧20% = ++) | 157 (SLNDEVPEV; listed as Homo sapiens) [compound 157] | ″+++″ (50%-69% = +++) |  |  |
| ″+++″ (≧50% = +++) | 166 (YLNHLEPPV; listed as Homo sapiens) [compound 166] | ″++++″ (> = 70% = ++++) |  |  |
| ″++″ (≧20% = ++) | 191 (LLQEGQALEYV; listed as Homo sapiens) [compound 191] | ″+++″ (50%-69% = +++) |  |  |
| ″+++″ (≧50% = +++) | 198 (KTINKVPTV; listed as Homo sapiens) [compound 198] | ″++″ (20%-49% = ++) |  |  |
| ″+++″ (≧50% = +++) | 199 (ALQDVPLSSV; listed as Homo sapiens) [compound 199] | ″+″ (<20% = +) |  |  |
| ″+++″ (≧50% = +++) | 215 (QLINHLHAV; listed as Homo sapiens) [compound 215] | ″++″ (20%-49% = ++) |  |  |
| ″++″ (≧20% = ++) | 242 (AIAYILQGV; listed as Homo sapiens) [compound 242] | ″+++″ (50%-69% = +++) |  |  |
| ″+++″ (≧50% = +++) | 247 (VLLPNDLLEKV; listed as Homo sapiens) [compound 247] | ″+″ (<20% = +) |  |  |
| ″+++″ (≧50% = +++) | 283 (ALYIGDGYVIHLA; listed as Homo sapiens) [compound 283] |  | +++ (50%-69% = +++) | + (<20% = +) |
| ″++″ (≧20% = ++) | 319 (SLEPQIQPV; listed as Homo sapiens) [compound 319] | ″+″ (<20% = +) |  |  |
| ″+++″ (≧50% = +++) | 384 (ILFANPNIFV; listed as Homo sapiens) [compound 384] | ″+″ (<20% = +) |  |  |
| ″++++″ (≧75% = ++++) | 395 (ALALGGIAVV; listed as Homo sapiens) [compound 395] | ″+++″ (50%-69% = +++) |  |  |
| ″+++″ (≧50% = +++) | 443 (GLWEIENNPTV; listed as Homo sapiens) [compound 443] | ″+″ (<20% = +) |  |  |

Reference: patent US20170037111A1, “Novel peptides and combination of peptides for use in immunotherapy against ovarian cancer and other cancers” (immatics biotechnologies GmbH, priority 2015, published 2017)
